# Measured values taken from ChEMBL document CHEMBL1127385, “Synthesis and diuretic activity of alkyl- and arylguanidine analogs of N,N'-dicyclohexyl-4-morpholinecarboxamidine in rats and dogs” (J Med Chem, 1994).
# What was measured:
# [1] = test system: Rattus norvegicus; experiment: Total electrolytic excretion of chlorine in urine of rats after peroral administration of 86.7 uM/Kg of drug; format: ADME, organism-based; settings: in vivo, po
# [2] = test system: Canis familiaris; experiment: Total electrolytic excretion of potassium in urine of dogs after intravenous administration of 26.2 uM/Kg of drug; format: ADME, organism-based, Canis lupus familiaris; settings: dog, in vivo
# [3] = test system: Canis familiaris; experiment: Total electrolytic excretion of potassium in urine of dogs after intravenous administration of 52.4 uM/Kg of drug; format: ADME, organism-based, Canis lupus familiaris; settings: dog, in vivo
# [4] = test system: Canis familiaris; experiment: Total electrolytic excretion of potassium in urine of dogs after intravenous administration of 7.85 uM/Kg of drug; format: ADME, organism-based, Canis lupus familiaris; settings: dog, in vivo
# [5] = test system: Rattus norvegicus; experiment: Total electrolytic excretion of chlorine in urine of rats after peroral administration of 28.9 uM/Kg of drug; format: ADME, organism-based; settings: in vivo, po
# [6] = test system: Rattus norvegicus; experiment: Total electrolytic excretion of chlorine in urine of rats after peroral administration of 289 uM/Kg of drug; format: ADME, organism-based; settings: in vivo, po
# [7] = test system: Canis familiaris; experiment: Total electrolytic excretion of sodium in urine of dogs after intravenous administration of 52.4 uM/Kg of drug; format: ADME, organism-based, Canis lupus familiaris; settings: dog, in vivo
# [8] = test system: Rattus norvegicus; experiment: Total electrolytic excretion of potassium in urine of rats after peroral administration of 86.7 uM/Kg of drug; format: ADME, organism-based; settings: in vivo, po
# [9] = test system: Canis familiaris; experiment: Total electrolytic excretion of chlorine in urine of dogs after intravenous administration of 26.2 uM/Kg of drug; format: ADME, organism-based, Canis lupus familiaris; settings: dog, in vivo
# [10] = test system: Canis familiaris; experiment: Total electrolytic excretion of chlorine in urine of dogs after intravenous administration of 52.4 uM/Kg of drug; format: ADME, organism-based, Canis lupus familiaris; settings: dog, in vivo
# [11] = test system: Canis familiaris; experiment: Total electrolytic excretion of chlorine in urine of dogs after intravenous administration of 7.85 uM/Kg of drug; format: ADME, organism-based, Canis lupus familiaris; settings: dog, in vivo
# [12] = test system: Canis familiaris; experiment: Total electrolytic excretion of sodium in urine of dogs after intravenous administration of 26.2 uM/Kg of drug; format: ADME, organism-based, Canis lupus familiaris; settings: dog, in vivo
# [13] = test system: Canis familiaris; experiment: Total electrolytic excretion of sodium in urine of dogs after intravenous administration of 7.85 uM/Kg of drug; format: ADME, organism-based, Canis lupus familiaris; settings: dog, in vivo
# [14] = test system: Rattus norvegicus; experiment: Total electrolytic excretion of potassium in urine of rats after peroral administration of 28.9 uM/Kg of drug; format: ADME, organism-based; settings: in vivo, po
# [15] = test system: Rattus norvegicus; experiment: Total electrolytic excretion of potassium in urine of rats after peroral administration of 289 uM/Kg of drug; format: ADME, organism-based; settings: in vivo, po
# [16] = test system: Rattus norvegicus; experiment: Total electrolytic excretion of sodium in urine of rats after peroral administration of 86.7 uM/Kg of drug; format: ADME, organism-based; settings: in vivo, po
# [17] = test system: Rattus norvegicus; experiment: Tested for the diuretic activity by measuring the urinary volume after peroral administering 86.7 uM/Kg of drug in rats; format: ADME, organism-based, Urine; settings: in vivo, po
# [18] = test system: Rattus norvegicus; experiment: Total electrolytic excretion of sodium in urine of rats after peroral administration of 28.9 uM/Kg of drug; format: ADME, organism-based; settings: in vivo, po
# [19] = test system: Rattus norvegicus; experiment: Total electrolytic excretion of sodium in urine of rats after peroral administration of 289 uM/Kg of drug; format: ADME, organism-based; settings: in vivo, po
# [20] = test system: Canis familiaris; experiment: Tested for the diuretic activity by measuring the urinary volume after intravenous administering 7.85 uM/Kg of drug in dogs; format: ADME, organism-based, Canis lupus familiaris, Urine; settings: dog, in vivo
# [21] = test system: Canis familiaris; experiment: Tested for the diuretic activity by measuring the urinary volume after intravenous administering 26.2 uM/Kg of drug in dogs; format: ADME, organism-based, Canis lupus familiaris, Urine; settings: dog, in vivo
# [22] = test system: Canis familiaris; experiment: Tested for the diuretic activity by measuring the urinary volume after intravenous administering 52.4 uM/Kg of drug in dogs; format: ADME, organism-based, Canis lupus familiaris, Urine; settings: dog, in vivo
# [23] = test system: Rattus norvegicus; experiment: Tested for the diuretic activity by measuring the urinary volume after peroral administering 28.9 uM/Kg of drug in rats; format: ADME, organism-based, Urine; settings: in vivo, po
# [24] = test system: Rattus norvegicus; experiment: Tested for the diuretic activity by measuring the urinary volume after peroral administering 289 uM/Kg of drug in rats; format: ADME, organism-based, Urine; settings: in vivo, po
# [25] = test system: Rattus norvegicus; experiment: Ratio of Total electrolytic excretion of sodium and potassium in urine of rats after peroral administration of 28.9 uM/Kg of drug; format: ADME, organism-based; settings: in vivo, po
# [26] = test system: Rattus norvegicus; experiment: Ratio of Total electrolytic excretion of sodium and potassium in urine of rats after peroral administration of 289 uM/Kg of drug; format: ADME, organism-based; settings: in vivo, po
# [27] = test system: Rattus norvegicus; experiment: Ratio of Total electrolytic excretion of sodium and potassium in urine of rats after peroral administration of 86.7 uM/Kg of drug; format: ADME, organism-based; settings: in vivo, po
# [28] = test system: Rattus norvegicus; experiment: Ratio of Total electrolytic excretion of sodium and potassium in urine of rats after intravenous administration of 26.2 uM/Kg of drug; format: ADME, organism-based; settings: in vivo
# [29] = test system: Rattus norvegicus; experiment: Ratio of Total electrolytic excretion of sodium and potassium in urine of rats after intravenous administration of 52.4 uM/Kg of drug; format: ADME, organism-based; settings: in vivo
# [30] = test system: Canis familiaris; experiment: Ratio of mean of 5 hr urinary excretion of Na+ and K+ from dogs at 7.85 umol/kg (iv); format: ADME, organism-based, Canis lupus familiaris, Urine; settings: dog, in vivo
# [31] = test system: Rattus norvegicus; experiment: Total electrolytic excretion of chlorine in urine of rats after peroral administration of 84.7 uM/Kg of drug; format: ADME, organism-based; settings: in vivo, po
# [32] = test system: Canis familiaris; experiment: Total electrolytic excretion of potassium in urine of dogs after intravenous administration of 8.47 uM/Kg of drug; format: ADME, organism-based, Canis lupus familiaris; settings: dog, in vivo
# [33] = test system: Rattus norvegicus; experiment: Total electrolytic excretion of chlorine in urine of rats after peroral administration of 28.22 uM/Kg of drug; format: ADME, organism-based; settings: in vivo, po
# [34] = test system: Rattus norvegicus; experiment: Total electrolytic excretion of chlorine in urine of rats after peroral administration of 282 uM/Kg of drug; format: ADME, organism-based; settings: in vivo, po
# [35] = test system: Rattus norvegicus; experiment: Total electrolytic excretion of potassium in urine of rats after peroral administration of 84.7 uM/Kg of drug; format: ADME, organism-based; settings: in vivo, po
# [36] = test system: Canis familiaris; experiment: Total electrolytic excretion of chlorine in urine of dogs after intravenous administration of 8.47 uM/Kg of drug; format: ADME, organism-based, Canis lupus familiaris; settings: dog, in vivo
# [37] = test system: Rattus norvegicus; experiment: Total electrolytic excretion of potassium in urine of rats after peroral administration of 28.22 uM/Kg of drug; format: ADME, organism-based; settings: in vivo, po
# [38] = test system: Rattus norvegicus; experiment: Total electrolytic excretion of potassium in urine of rats after peroral administration of 282 uM/Kg of drug; format: ADME, organism-based; settings: in vivo, po
# [39] = test system: Rattus norvegicus; experiment: Total electrolytic excretion of sodium in urine of rats after peroral administration of 84.7 uM/Kg of drug; format: ADME, organism-based; settings: in vivo, po
# [40] = test system: Rattus norvegicus; experiment: Tested for the diuretic activity by measuring the urinary volume after peroral administering 84.7 uM/Kg of drug in rats; format: ADME, organism-based, Urine; settings: in vivo, po
# [41] = test system: Rattus norvegicus; experiment: Total electrolytic excretion of sodium in urine of rats after peroral administration of 28.2 uM/Kg of drug; format: ADME, organism-based; settings: in vivo, po
# [42] = test system: Rattus norvegicus; experiment: Total electrolytic excretion of sodium in urine of rats after peroral administration of 282 uM/Kg of drug; format: ADME, organism-based; settings: in vivo, po
# [43] = test system: Canis familiaris; experiment: Tested for the diuretic activity by measuring the urinary volume after intravenous administering 8.47 uM/Kg of drug in dogs; format: ADME, organism-based, Canis lupus familiaris, Urine; settings: dog, in vivo
# [44] = test system: Rattus norvegicus; experiment: Tested for the diuretic activity by measuring the urinary volume after peroral administering 28.2 uM/Kg of drug in rats; format: ADME, organism-based, Urine; settings: in vivo, po
# [45] = test system: Rattus norvegicus; experiment: Tested for the diuretic activity by measuring the urinary volume after peroral administering 282 uM/Kg of drug in rats; format: ADME, organism-based, Urine; settings: in vivo, po
# [46] = test system: Rattus norvegicus; experiment: Ratio of Total electrolytic excretion of sodium and potassium in urine of rats after peroral administration of 28.2 uM/Kg of drug; format: ADME, organism-based; settings: in vivo, po
# [47] = test system: Rattus norvegicus; experiment: Ratio of Total electrolytic excretion of sodium and potassium in urine of rats after peroral administration of 282 uM/Kg of drug; format: ADME, organism-based; settings: in vivo, po
# [48] = test system: Rattus norvegicus; experiment: Ratio of Total electrolytic excretion of sodium and potassium in urine of rats after peroral administration of 84.7 uM/Kg of drug; format: ADME, organism-based; settings: in vivo, po
# [49] = test system: Rattus norvegicus; experiment: Ratio of Total electrolytic excretion of sodium and potassium in urine of rats after intravenous administration of 8.47 uM/Kg of drug; format: ADME, organism-based; settings: in vivo
# [50] = test system: Canis familiaris; experiment: Total electrolytic excretion of sodium in urine of dogs after intravenous administration of 8.47 uM/Kg of drug; format: ADME, organism-based, Canis lupus familiaris; settings: dog, in vivo
smiles,measurement,setting,value
C1CCC(/N=C(\NC23CC4CC(CC(C4)C2)C3)N2CCOCC2)CC1,Excretion Cl-,[1],1.54 m equiv
same,Excretion K+,[2],2.3 m equiv
same,Excretion K+,[3],3.3 m equiv
same,Excretion K+,[4],1.4 m equiv
same,Excretion Cl-,[5],0.97 m equiv
same,Excretion Cl-,[6],1.82 m equiv
same,Excretion Na+,[7],36 m equiv
same,Excretion K+,[8],0.24 m equiv
same,Excretion Cl-,[9],22.4 m equiv
same,Excretion Cl-,[10],28.8 m equiv
same,Excretion Cl-,[11],7 m equiv
same,Excretion Na+,[12],27.9 m equiv
same,Excretion Na+,[13],8.4 m equiv
same,Excretion K+,[14],0.24 m equiv
same,Excretion K+,[15],0.24 m equiv
same,Excretion Na+,[16],1.58 m equiv
same,V,[17],9.9 mL
same,Excretion Na+,[18],1 m equiv
same,Excretion Na+,[19],1.86 m equiv
same,V,[20],62 mL
same,V,[21],197 mL
same,V,[22],218 mL
same,V,[23],5.5 mL
same,V,[24],11.3 mL
same,Ratio,[25],4.2
same,Ratio,[26],7.9
same,Ratio,[27],6.6
same,Ratio,[28],15.3
same,Ratio,[29],12
same,Ratio,[30],8.8
Fc1ccc(/N=C(/Nc2ccc(F)cc2)N2CCOCC2)cc1,Excretion Cl-,[31],1.82 m equiv
same,Excretion K+,[32],1.1 m equiv
same,Excretion Cl-,[33],1.32 m equiv
same,Excretion Cl-,[34],1.7 m equiv
same,Excretion K+,[35],0.48 m equiv
same,Excretion Cl-,[36],5.7 m equiv
same,Excretion K+,[37],0.39 m equiv
same,Excretion K+,[38],0.24 m equiv
same,Excretion Na+,[39],1.9 m equiv
same,V,[40],13.6 mL
same,Excretion Na+,[41],1.29 m equiv
same,Excretion Na+,[42],2.05 m equiv
same,V,[43],58 mL
same,V,[44],9.2 mL
same,V,[45],16.2 mL
same,Ratio,[46],3.3
same,Ratio,[47],8.5
same,Ratio,[48],4
same,Ratio,[49],5.7
same,Excretion Na+,[50],6 m equiv
